Results taken from the NIST ThermoML archive (doi:10.1021/je100068y).
Where “and” joins values, the source holds several entries; their conditions need not be identical. Identical values can stand only once.

How the values were obtained:
[1] = cn = amount concentration of the nth substance listed, in mol/dm3; conditions: 101.33 kPa, Liquid, Alternating current cell with electrodes
[2] = mn = molality of the nth substance listed, in mol/kg; conditions: 101.33 kPa, Liquid, m1 = 0.05

CCCCCCCCCCCCOS(=O)(=O)[O-].[Na+] [sodium dodecyl sulfate] + O
electrical conductivity [S/m], [1]
Conditions	288.15 K	293.15 K	298.15 K	303.15 K	308.15 K
c1 = 0.003022	0.0165	0.0184	0.0207	0.0234	0.0258
c1 = 0.004552	0.0247	0.0279	0.0313	0.0349	0.0386
c1 = 0.005661	0.0304	0.0344	0.0388	0.0431	0.0477
c1 = 0.006744	0.0361	0.0408	0.0458	0.051	0.0564
c1 = 0.007679	0.0408	0.0461	0.0517	0.0577	0.0638
c1 = 0.008765	0.0447	0.0502	0.0565	0.0632	0.0704
c1 = 0.009933	0.0474	0.0532	0.06	0.0671	0.0751
c1 = 0.0111	0.0497	0.0559	0.0632	0.0708	0.0793
c1 = 0.01221	0.0518	0.0584	0.0661	0.074	0.083
c1 = 0.01335	0.0538	0.0609	0.0688	0.0774	0.0869
c1 = 0.01444	0.0558	0.0632	0.0715	0.0805	0.0904
c1 = 0.0156	0.058	0.0657	0.0745	0.084	0.0944
c1 = 0.01674	0.0601	0.0683	0.0775	0.0873	0.098

[2]
Conditions	mass density
298.15 K	999.198 kg/m3 and 999.155 kg/m3
303.15 K	997.657 kg/m3 and 997.661 kg/m3
308.15 K	995.989 kg/m3 and 995.962 kg/m3
313.15 K	994.178 kg/m3 and 994.186 kg/m3
